Data as given in PMC12203311, “Design, synthesis, in silico and in vitro evaluation of pyrrole–indole hybrids as dual tubulin and aromatase inhibitors with potent anticancer activities” (RSC Advances, 2025).

Tests used:
[1] = system: BT-549; experiment: NCI60 five-dose screen; format: cell-based; conditions: Homo sapiens, BT-549, breast cancer; for CC50: read-out: LC50 (the source's name)
[2] = system: NCI-H460; experiment: NCI60 five-dose screen; format: cell-based; conditions: Homo sapiens, NCI-H460, NSC lung cancer; for CC50: read-out: LC50 (the source's name)
[3] = system: UACC-257; experiment: NCI60 five-dose screen; format: cell-based; conditions: Homo sapiens, UACC-257, melanoma; for CC50: read-out: LC50 (the source's name)
[4] = system: NCI/ADR-RES; experiment: NCI60 five-dose screen; format: cell-based, human; conditions: Homo sapiens, ovarian cancer; for CC50: read-out: LC50 (the source's name)
[5] = system: MOLT-4; experiment: NCI60 five-dose screen; format: cell-based; conditions: Homo sapiens, MOLT-4, leukemia; for CC50: read-out: LC50 (the source's name)
[6] = system: NCI-H522; experiment: NCI60 five-dose screen; format: cell-based; conditions: Homo sapiens, NCI-H522, NSC lung cancer; for CC50: read-out: LC50 (the source's name)
[7] = system: NCI-H322M; experiment: NCI60 five-dose screen; format: cell-based; conditions: Homo sapiens, NSC lung cancer; for CC50: read-out: LC50 (the source's name)
[8] = biological target: T1, Human CYP19 (aromatase) (Homo sapiens, UniProt P11511); experiment: Aromatase inhibition assay (DBF fluorometric substrate); format: biochemical; conditions: active defined as IC50 < 12.5 µM
T1 construct: purchased GENTEST, Woburn, MA 456260; host or cells: baculovirus/insect cells
T1 sequence (P11511 1-503): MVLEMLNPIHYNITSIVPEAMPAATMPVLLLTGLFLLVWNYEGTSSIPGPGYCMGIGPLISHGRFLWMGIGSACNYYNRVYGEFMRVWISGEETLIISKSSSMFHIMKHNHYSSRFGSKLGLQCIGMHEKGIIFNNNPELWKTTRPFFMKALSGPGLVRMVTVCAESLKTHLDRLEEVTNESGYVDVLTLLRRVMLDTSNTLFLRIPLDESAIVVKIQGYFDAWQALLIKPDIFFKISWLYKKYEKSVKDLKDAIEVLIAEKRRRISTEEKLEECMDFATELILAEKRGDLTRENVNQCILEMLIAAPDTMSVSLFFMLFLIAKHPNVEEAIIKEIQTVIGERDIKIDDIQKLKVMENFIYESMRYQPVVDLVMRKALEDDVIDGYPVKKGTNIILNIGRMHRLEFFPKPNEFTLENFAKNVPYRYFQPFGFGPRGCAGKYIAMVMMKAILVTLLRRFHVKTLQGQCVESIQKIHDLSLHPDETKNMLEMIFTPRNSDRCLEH
Experimental: Aromatase enzyme was purchased from GENTEST, Woburn, MA01801, USA (Supersom human CYP19+oxidoreductase, baculovirus/insect cell-expressed; Product No. 456260). The aromatase inhibitory activity was performed using Human CYP19 enzymes and DBF as a fluorometric substrate as described by Stresser, et al.[41] with minor modifications. The mixture, containing 100 µL of cofactor/serial dilution buffer was pre-incubated in 37 °C for 10 min. […] After incubation at 37 °C for 30 min, the reaction was stopped by addition of 50 µL of 2.2 M NaOH. Fluorescence signal was monitored using an excitation wavelength of 490 nm and emission wavelength of 530 nm.

[9] = system: HT29; experiment: NCI60 five-dose screen; format: cell-based; conditions: Homo sapiens, HT-29, HT29, colon cancer; for CC50: read-out: LC50 (the source's name)
[10] = system: M14; experiment: NCI60 five-dose screen; format: cell-based; conditions: Homo sapiens, M14, melanoma; for CC50: read-out: LC50 (the source's name)
[11] = system: EKVX; experiment: NCI60 five-dose screen; format: cell-based; conditions: Homo sapiens, NSC lung cancer; for CC50: read-out: LC50 (the source's name)
[12] = system: 786-0; experiment: NCI60 five-dose screen; format: cell-based; conditions: Homo sapiens, 786-0, renal cancer; for CC50: read-out: LC50 (the source's name)
[13] = system: OVCAR-8; experiment: NCI60 five-dose screen; format: cell-based; conditions: Homo sapiens, OVCAR-8, ovarian cancer; for CC50: read-out: LC50 (the source's name)
[14] = system: HCT-15; experiment: NCI60 five-dose screen; format: cell-based; conditions: Homo sapiens, HCT-15, colon cancer; for CC50: read-out: LC50 (the source's name)
[15] = system: NCI-H226; experiment: NCI60 five-dose screen; format: cell-based; conditions: Homo sapiens, NCI-H226, NSC lung cancer; for CC50: read-out: LC50 (the source's name)
[16] = system: L929 normal mouse fibroblast cell line; experiment: Cytotoxicity MTT assay, L929; format: cell-based; conditions: 50 µM single concentration
Experimental: T47D (ATCC HTB-133) was purchased from Biomedia (Thailand) Co., LTD. L929 (ATCC CCL-1) was received as a gift from Prof. Tanapat Palaga, Department of Microbiology, Faculty of Science, Chulalongkorn University, Bangkok, Thailand. The cells were cultured in Dulbecco's Modified Eagle's Medium (DMEM; Gibco) supplemented with 10% fetal bovine serum (FBS; HyClone), 100 U mL^−1 penicillin and 100 µg mL^−1 streptomycin (Gibco) at 37 °C with 5% CO2.
The antiproliferative activity was determined by MTT assay. Briefly, the cells were plated into a 96-well microplate at the density of 10 000 cells per well. The cells were allowed to grow overnight before treated with the solutions of compounds in culture medium at the designated concentrations for 48 hours. The medium was then replaced with MTT solution (0.5 mg mL^−1 MTT in culture medium) and incubated for 3 hours. A 100 µL of DMSO was used to dissolve the produced formazan. Absorbance at 570 nm was then measured using a microplate reader (Varioskan™ LUX multimode microplate reader, Thermo Scientific™). Percent viability was calculated relative to the vehicle control (DMSO).

[17] = system: HOP-62; experiment: NCI60 five-dose screen; format: cell-based; conditions: Homo sapiens, HOP-62, NSC lung cancer; for CC50: read-out: LC50 (the source's name)
[18] = system: SNB-19; experiment: NCI60 five-dose screen; format: cell-based; conditions: Homo sapiens, SNB-19, CNS cancer; for CC50: read-out: LC50 (the source's name)
[19] = system: LOX IMVI; experiment: NCI60 five-dose screen; format: cell-based; conditions: Homo sapiens, melanoma; for CC50: read-out: LC50 (the source's name)
[20] = system: HOP-92; experiment: NCI60 five-dose screen; format: cell-based; conditions: Homo sapiens, HOP-92, NSC lung cancer; for CC50: read-out: LC50 (the source's name)
[21] = system: CAKI-1; experiment: NCI60 five-dose screen; format: cell-based; conditions: Homo sapiens, CAKI-1, renal cancer; for CC50: read-out: LC50 (the source's name)

Cn1cccc1/C=N/NC(=O)c1[nH]c2ccc(Br)cc2c1-c1ccccc1 [Derivative 3d, (E)-5-Bromo-N′-((1-methyl-1H-pyrrol-2-yl)methylene)-3-phenyl-1H-indole-2-carbohydrazide]
GI50 [1]: 2.81 µM
CC50 [1]: > 100 µM
GI50 [2]: 442 nM
CC50 [2]: > 100 µM
GI50 [3]: 416 nM
CC50 [3]: > 100 µM
GI50 [4]: 186 nM
CC50 [4]: 40.9 µM
GI50 [5]: 438 nM
CC50 [5]: > 100 µM
GI50 [6]: 217 nM
CC50 [6]: > 100 µM
GI50 [7]: 1980 nM
CC50 [7]: > 100 µM
IC50 [8]: > 12500 nM
aromatase inhibition [8]: inactivity against aromatase
GI50 [9]: 327 nM
CC50 [9]: > 100 µM
GI50 [10]: 324 nM
CC50 [10]: > 100 µM
GI50 [11]: 641 nM
CC50 [11]: > 100 µM
GI50 [12]: 29.4 µM
CC50 [12]: > 100 µM
GI50 [13]: 390 nM
CC50 [13]: > 100 µM
GI50 [14]: 228 nM
CC50 [14]: > 100 µM
GI50 [15]: 603 nM
CC50 [15]: > 100 µM
L929 cell survival [16]: > 80%
L929 toxicity at single concentration [16]: — ^c (No toxicity observed at 50 µM single concentration (>80% cell survival).)
GI50 [17]: 570 nM
CC50 [17]: > 100 µM
GI50 [18]: 449 nM
CC50 [18]: > 100 µM
GI50 [19]: 494 nM
CC50 [19]: > 100 µM
GI50 [20]: 429 nM
CC50 [20]: > 100 µM
GI50 [21]: 255 nM
CC50 [21]: > 100 µM

CCOC(=O)c1ccc(/C=N/NC(=O)c2[nH]c3ccc(Br)cc3c2-c2ccccc2)[nH]1 [Derivative 3i, Ethyl (E)-5-((2-(5-bromo-3-phenyl-1H-indole-2-carbonyl)hydrazono)methyl)-1H-pyrrole-2-carboxylate]
GI50 [1]: 3.47 µM
CC50 [1]: > 100 µM
GI50 [2]: 2800 nM
CC50 [2]: 41.4 µM
GI50 [3]: 2970 nM
CC50 [3]: 87.4 µM
GI50 [4]: 897 nM
CC50 [4]: 9.2 µM
GI50 [5]: 2490 nM
CC50 [5]: > 100 µM
GI50 [6]: 460 nM
CC50 [6]: 82.2 µM
GI50 [7]: 3300 nM
CC50 [7]: > 100 µM
IC50 [8]: 2600 ± 800 nM
GI50 [9]: 2320 nM
CC50 [9]: 22.9 µM
GI50 [10]: 2730 nM
CC50 [10]: 71.9 µM
GI50 [11]: 4290 nM
CC50 [11]: > 100 µM
GI50 [12]: 4.48 µM
CC50 [12]: > 100 µM
GI50 [13]: 2490 nM
CC50 [13]: 47.6 µM
GI50 [14]: 2480 nM
CC50 [14]: 40.5 µM
GI50 [15]: 3130 nM
CC50 [15]: 45.4 µM
L929 cell survival [16]: > 80%
L929 toxicity at single concentration [16]: — ^c (No toxicity observed at 50 µM single concentration (>80% cell survival).)
GI50 [17]: 3650 nM
CC50 [17]: > 100 µM
GI50 [18]: 2980 nM
CC50 [18]: 62.8 µM
GI50 [19]: 2260 nM
CC50 [19]: 35.2 µM
GI50 [20]: 2330 nM
CC50 [20]: > 100 µM
GI50 [21]: 961 nM
CC50 [21]: 74.2 µM
